Common to all, as to experiment: stopped-flow CO2 hydrase assay
Common to all, as to format: biochemical

Assay [1] concerns the target T1, hCA II (Homo sapiens, UniProt P00918).
T1 construct: gene CA2
The text has this:
stopped-flow CO2 hydrase assay on hCA II

For assay [2], the target named is T2, hCA IX (Homo sapiens, UniProt Q16790).
T2 construct: gene CA9; trans-membrane isoform
The text has this: stopped-flow CO2 hydrase assay on hCA IX

Another assay concerns the target T3, hCA I (Homo sapiens, UniProt P00915).
T3 construct: gene CA1; cytosolic isoform
An excerpt:
stopped-flow CO2 hydrase assay on hCA I

Assay [3] has as its target T4, hCA XII (Homo sapiens, UniProt O43570).
T4 construct: gene CA12; trans-membrane isoform
An excerpt:
stopped-flow CO2 hydrase assay on hCA XII

The target in assay [4] is T2, hCA IX. Conditions: read-out: KI (μM)^a / hCA I.
For assay [5], the target named is T4, hCA XII. Conditions: read-out: KI (μM)^a / hCA I.
The target of assay [6] is T1, hCA II. The following applies: read-out: KI (μM)^a / hCA I.

Among the data in PMC9466612, “Enaminone-based carboxylic acids as novel non-classical carbonic anhydrases inhibitors: design, synthesis and in vitro biological assessment” (Journal of Enzyme Inhibition and Medicinal Chemistry, 2022) are Ki values, retold here.

Each structure is given as a SMILES string. Like-named read-outs stand apart in the source and are kept apart here. Where only a bound is given, the exact number is not on record here.

T3 sequence (P00915 2-261): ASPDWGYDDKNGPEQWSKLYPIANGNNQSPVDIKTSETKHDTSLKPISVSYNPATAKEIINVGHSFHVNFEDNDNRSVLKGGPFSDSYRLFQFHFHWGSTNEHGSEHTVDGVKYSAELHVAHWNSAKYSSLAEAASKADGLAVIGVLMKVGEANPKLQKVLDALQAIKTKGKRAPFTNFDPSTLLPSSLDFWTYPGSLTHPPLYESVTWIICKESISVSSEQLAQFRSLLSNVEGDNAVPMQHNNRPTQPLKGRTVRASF
T4 sequence (O43570 30-289 limits assumed): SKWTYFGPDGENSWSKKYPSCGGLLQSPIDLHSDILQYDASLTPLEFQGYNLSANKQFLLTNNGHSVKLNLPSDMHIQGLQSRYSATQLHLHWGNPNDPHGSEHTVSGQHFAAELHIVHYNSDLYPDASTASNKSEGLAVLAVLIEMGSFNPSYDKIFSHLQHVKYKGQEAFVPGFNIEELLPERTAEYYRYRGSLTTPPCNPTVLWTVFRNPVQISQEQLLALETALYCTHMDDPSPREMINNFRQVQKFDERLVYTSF

As for `O=C(O)c1cccc(NCCC(=O)c2ccccc2)c1` [7a, 3/4-((3-oxo-3-phenylpropyl)amino)benzoic acids 7a–b], the Ki on hCA II [1] is 64.3 µM; at hCA IX [2], 23.7 µM; at hCA I, above 100 µM; at hCA XII [3], 7.4 µM.
Regarding `O=C(O)c1ccc(NC=CC(=O)c2ccc(F)cc2)cc1` [5m], the Ki at hCA II [1] amounted to 8.7 µM; at hCA IX [2] it was 0.92 µM; at hCA I, 68.8 µM; on hCA XII [3], 1.1 µM.
Regarding `O=C(/C=C\Nc1ccccc1C(=O)O)c1ccc(Cl)cc1` [5c], the Ki on hCA II [1] is 32.7 µM; on hCA IX [2], 17.7 µM; on hCA I, above 100 µM; at hCA XII [3], 12.5 µM.
Consider `O=C(/C=C\Nc1ccccc1C(=O)O)c1ccc([N+](=O)[O-])cc1` [5d], for which the Ki is 26.9 µM at hCA II [1], 14.1 µM on hCA IX [2], above 100 µM at hCA I and 7.8 µM on hCA XII [3].
The matching figures for `O=C(O)c1cccc(NC=CC(=O)c2ccc(Cl)cc2)c1` [5h]: 77.1 µM, 19.2 µM, above 100 µM and 8.6 µM.
For `O=C(O)c1ccc(NCCC(=O)c2ccccc2)cc1` [7b, 3/4-((3-oxo-3-phenylpropyl)amino)benzoic acids 7a–b], the Ki at hCA II [1] was 16.7 µM; on hCA IX [2] it was 8.3 µM; at hCA I, 63.8 µM; at hCA XII [3], 9.1 µM.
The matching figures for `O=C(O)c1ccc(NC=CC(=O)c2ccc([N+](=O)[O-])cc2)cc1` [5p]: 12.6 µM, 4.1 µM, 95.6 µM and 0.85 µM.
The matching figures for `O=C(O)c1ccc(NC=CC(=O)c2ccc3ccccc3c2)cc1` [5q]: 7.4 µM, 0.76 µM, 79.4 µM and 1.5 µM.
The matching figures for `O=C(/C=C\Nc1ccccc1C(=O)O)c1ccc(F)cc1` [5b]: 24.3 µM, 13.2 µM, above 100 µM and 4.3 µM.
For `O=C(O)c1cccc(NC=CC(=O)c2ccc([N+](=O)[O-])cc2)c1` [5j], the Ki is 80.7 µM at hCA II [1], 24.7 µM on hCA IX [2], above 100 µM on hCA I and 8.9 µM on hCA XII [3].
Regarding `O=C(O)CNC(=O)c1ccc(N/C=C/C(=O)c2ccc3ccccc3c2)cc1` [12c], the Ki on hCA I, on hCA IX [4], on hCA XII [5] and at hCA II [6] was above 100 µM each time.
For `O=C(O)c1ccc(NC=CC(=O)c2ccccc2)cc1` [5l], the Ki was 9.8 µM at hCA II [1], 1.2 µM at hCA IX [2], 75.3 µM at hCA I and 0.97 µM on hCA XII [3].
In the case of `O=C(O)CNC(=O)c1ccc(N/C=C/C(=O)c2ccc(Br)cc2)cc1` [12b], the Ki at hCA I, at hCA IX [4], at hCA XII [5] and on hCA II [6] was above 100 µM in each case.
Take `O=C(O)c1cccc(NC=CC(=O)c2ccc3ccccc3c2)c1` [5k]: the Ki is 92.3 µM on hCA II [1], 11.4 µM on hCA IX [2], above 100 µM on hCA I and 9.7 µM on hCA XII [3].
`O=C(O)c1cccc(NC=CC(=O)c2ccc(F)cc2)c1` [5g]: the Ki at hCA II [1] is 68.2 µM; on hCA IX [2] it was 9.6 µM; at hCA I, above 100 µM; at hCA XII [3] it was 10.3 µM.
As for `O=C(O)c1ccc(NC=CC(=O)c2ccc(Br)cc2)cc1` [5o], the Ki on hCA II [1] was 15.3 µM; on hCA IX [2], 5.6 µM; at hCA I, above 100 µM; at hCA XII [3], 6.2 µM.
Regarding `O=C(O)c1ccc(NC=CC(=O)c2ccc(Cl)cc2)cc1` [5n], the Ki on hCA II [1] turned out to be 13.5 µM; on hCA IX [2] it was 3.4 µM; at hCA I, 81.5 µM; on hCA XII [3], 4.6 µM.
The matching figures for `O=C(O)c1cccc(NC=CC(=O)c2ccc(Br)cc2)c1` [5i]: 81.4 µM, 32.5 µM, above 100 µM and 13.9 µM.
Consider `O=C(O)CNC(=O)c1ccc(NC=CC(=O)c2ccccc2)cc1` [12a], for which the Ki on hCA I, on hCA IX [4], on hCA XII [5] and on hCA II [6] was above 100 µM each time.
Take `O=C(O)c1cccc(NC=CC(=O)c2ccccc2)c1` [5f]: the Ki at hCA II [1] was 72.8 µM; at hCA IX [2], 15.9 µM; at hCA I, above 100 µM; on hCA XII [3] it was 9.5 µM.
The matching figures for `O=C(/C=C\Nc1ccccc1C(=O)O)c1ccccc1` [5a]: 39.4 µM, 10.6 µM, above 100 µM and 6.4 µM.
The matching figures for `O=C(/C=C\Nc1ccccc1C(=O)O)c1ccc2ccccc2c1` [5e]: 49 µM, 19.3 µM, above 100 µM and 15.7 µM.
